Measured values reported in PubChem BioAssay AID2060908 (Molecular Pharmacology Branch, DTP, NCI, 2025).

Test system: 186277-243-T-J2-PDC complex spheroids, viability
Assay: Anticancer human tumor 186277-243-T-J2-PDC patient-derived colon adenocarcinoma cell line growth inhibition [RAS]
Settings: for IC50: curve of first compound; for viability, T/C: stronger effect = lower value
Method in brief: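 Multi-cell-type spheroids: tumor cells plus HUVEC endothelial cells and mesenchymal stem cells. RAS-pathway inhibitors were combined with targeted agents, each dosed in half-log steps down from clinical Cmax, or from 10 microM when Cmax was unknown.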

[1] = second compound 0.000949 µM, first compound 0.0316 µM
[2] = second compound 0.000949 µM, first compound 0.1 µM
[3] = second compound 0.000949 µM, first compound 0.316 µM
[4] = second compound 0.000949 µM, first compound 1 µM
[5] = second compound 0.000949 µM, first compound 3.16 µM
[6] = second compound 0.000949 µM, first compound 10 µM
[7] = second compound 0.003 µM, first compound 0.0316 µM
[8] = second compound 0.003 µM, first compound 0.1 µM
[9] = second compound 0.003 µM, first compound 0.316 µM
[10] = second compound 0.003 µM, first compound 1 µM
[11] = second compound 0.003 µM, first compound 3.16 µM
[12] = second compound 0.003 µM, first compound 10 µM
[13] = second compound 0.00949 µM, first compound 0.0316 µM
[14] = second compound 0.00949 µM, first compound 0.1 µM
[15] = second compound 0.00949 µM, first compound 0.316 µM
[16] = second compound 0.00949 µM, first compound 1 µM
[17] = second compound 0.00949 µM, first compound 3.16 µM
[18] = second compound 0.00949 µM, first compound 10 µM
[19] = second compound 0.03 µM, first compound 0.0316 µM
[20] = second compound 0.03 µM, first compound 0.1 µM
[21] = second compound 0.03 µM, first compound 0.316 µM
[22] = second compound 0.03 µM, first compound 1 µM
[23] = second compound 0.03 µM, first compound 3.16 µM
[24] = second compound 0.03 µM, first compound 10 µM
[25] = second compound 0.0949 µM, first compound 0.0316 µM
[26] = second compound 0.0949 µM, first compound 0.1 µM
[27] = second compound 0.0949 µM, first compound 0.316 µM
[28] = second compound 0.0949 µM, first compound 1 µM
[29] = second compound 0.0949 µM, first compound 3.16 µM
[30] = second compound 0.0949 µM, first compound 10 µM
[31] = second compound 0.3 µM, first compound 0.0316 µM
[32] = second compound 0.3 µM, first compound 0.1 µM
[33] = second compound 0.3 µM, first compound 0.316 µM
[34] = second compound 0.3 µM, first compound 1 µM
[35] = second compound 0.3 µM, first compound 3.16 µM
[36] = second compound 0.3 µM, first compound 10 µM
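Further: spheroids exposed to compounds for 7 days before viability read.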

CC(=O)OC12COC1CC(O)C1(C)C(=O)C(O)C3=C(C)C(OC(=O)C(O)C(NC(=O)OC(C)(C)C)c4ccccc4)CC(O)(C(OC(=O)c4ccccc4)C21)C3(C)C (stereo unspecified) + C#Cc1c(F)ccc2cc(O)cc(-c3ncc4c(N5CC6CCC(C5)N6)nc(OCC56CCCN5CC(F)C6)nc4c3F)c12
IC50 (second compound 0.0316 µM): < 0.0316 µM
IC50 (second compound 0.1 µM): < 0.0316 µM
IC50 (second compound 0.316 µM): < 0.0316 µM
IC50 (second compound 1 µM): < 0.0316 µM
IC50 (second compound 3.16 µM): < 0.0316 µM
IC50 (second compound 10 µM): < 0.0316 µM
viability, T/C (second compound 0.0316 µM, first compound 0.0316 µM): 5.3%
viability, T/C (second compound 0.0316 µM, first compound 0.1 µM): 5.14%
viability, T/C (second compound 0.0316 µM, first compound 0.316 µM): 5.59%
viability, T/C (second compound 0.0316 µM, first compound 1 µM): 4.15%
viability, T/C (second compound 0.0316 µM, first compound 3.16 µM): 5.04%
viability, T/C (second compound 0.0316 µM, first compound 10 µM): 4.9%
viability, T/C (second compound 0.1 µM, first compound 0.0316 µM): 6.01%
viability, T/C (second compound 0.1 µM, first compound 0.1 µM): 5.73%
viability, T/C (second compound 0.1 µM, first compound 0.316 µM): 4.94%
viability, T/C (second compound 0.1 µM, first compound 1 µM): 4.03%
viability, T/C (second compound 0.1 µM, first compound 3.16 µM): 5.26%
viability, T/C (second compound 0.1 µM, first compound 10 µM): 3.53%
viability, T/C (second compound 0.316 µM, first compound 0.0316 µM): 5.77%
viability, T/C (second compound 0.316 µM, first compound 0.1 µM): 4.92%
viability, T/C (second compound 0.316 µM, first compound 0.316 µM): 4.48%
viability, T/C (second compound 0.316 µM, first compound 1 µM): 4.42%
viability, T/C (second compound 0.316 µM, first compound 3.16 µM): 4.75%
viability, T/C (second compound 0.316 µM, first compound 10 µM): 5%
viability, T/C (second compound 1 µM, first compound 0.0316 µM): 4.79%
viability, T/C (second compound 1 µM, first compound 0.1 µM): 5.04%
viability, T/C (second compound 1 µM, first compound 0.316 µM): 4.17%
viability, T/C (second compound 1 µM, first compound 1 µM): 4.69%
viability, T/C (second compound 1 µM, first compound 3.16 µM): 5.21%
viability, T/C (second compound 1 µM, first compound 10 µM): 4.15%
viability, T/C (second compound 3.16 µM, first compound 0.0316 µM): 3.84%
viability, T/C (second compound 3.16 µM, first compound 0.1 µM): 4.36%
viability, T/C (second compound 3.16 µM, first compound 0.316 µM): 4.81%
viability, T/C (second compound 3.16 µM, first compound 1 µM): 3.94%
viability, T/C (second compound 3.16 µM, first compound 3.16 µM): 4.59%
viability, T/C (second compound 3.16 µM, first compound 10 µM): 3.53%
viability, T/C (second compound 10 µM, first compound 0.0316 µM): 4.68%
viability, T/C (second compound 10 µM, first compound 0.1 µM): 3.75%
viability, T/C (second compound 10 µM, first compound 0.316 µM): 4.17%
viability, T/C (second compound 10 µM, first compound 1 µM): 4.45%
viability, T/C (second compound 10 µM, first compound 3.16 µM): 4.43%
viability, T/C (second compound 10 µM, first compound 10 µM): 3.61%

NC1c2ccccc2OC12CCN(c1cnc3c(N4CCCc5ncccc54)n[nH]c3n1)CC2 (stereo unspecified) + CCn1c(-c2cccnc2C(C)OC)c2c3cc(ccc31)N1CCOC(CC(NC(=O)C(C(C)C)N(C)C(=O)C3(F)CCN(C(=O)C#CC(C)(C)N(C)C)CC3)C(=O)N3CCCC(N3)C(=O)OCC(C)(C)C2)C1
IC50 (second compound 0.000949 µM): > 10 µM
IC50 (second compound 0.003 µM): > 10 µM
IC50 (second compound 0.00949 µM): > 10 µM
IC50 (second compound 0.03 µM): > 10 µM
IC50 (second compound 0.0949 µM): > 10 µM
IC50 (second compound 0.3 µM): 4.09 µM
viability, T/C [1]: 84.6%
viability, T/C [2]: 102%
viability, T/C [3]: 114%
viability, T/C [4]: 122%
viability, T/C [5]: 109%
viability, T/C [6]: 70.3%
viability, T/C [7]: 108%
viability, T/C [8]: 96.5%
viability, T/C [9]: 119%
viability, T/C [10]: 119%
viability, T/C [11]: 104%
viability, T/C [12]: 74.6%
viability, T/C [13]: 100%
viability, T/C [14]: 110%
viability, T/C [15]: 121%
viability, T/C [16]: 119%
viability, T/C [17]: 104%
viability, T/C [18]: 66.9%
viability, T/C [19]: 111%
viability, T/C [20]: 89%
viability, T/C [21]: 117%
viability, T/C [22]: 114%
viability, T/C [23]: 105%
viability, T/C [24]: 76%
viability, T/C [25]: 102%
viability, T/C [26]: 94.1%
viability, T/C [27]: 112%
viability, T/C [28]: 91.2%
viability, T/C [29]: 83.4%
viability, T/C [30]: 60.8%
viability, T/C [31]: 94.5%
viability, T/C [32]: 88.5%
viability, T/C [33]: 75.5%
viability, T/C [34]: 65.9%
viability, T/C [35]: 54.6%
viability, T/C [36]: 38.3%

CCC(CC)c1cc(NC2CCC(N)C2)n2nccc2n1 (stereo unspecified) + CCn1c(-c2cccnc2C(C)OC)c2c3cc(ccc31)N1CCOC(CC(NC(=O)C(C(C)C)N(C)C(=O)C3(F)CCN(C(=O)C#CC(C)(C)N(C)C)CC3)C(=O)N3CCCC(N3)C(=O)OCC(C)(C)C2)C1
IC50 (second compound 0.000949 µM): 1.73 µM
IC50 (second compound 0.003 µM): 1.78 µM
IC50 (second compound 0.00949 µM): 1.88 µM
IC50 (second compound 0.03 µM): 1.89 µM
IC50 (second compound 0.0949 µM): 1.54 µM
IC50 (second compound 0.3 µM): 1.21 µM
viability, T/C [1]: 105%
viability, T/C [2]: 91.8%
viability, T/C [3]: 90.4%
viability, T/C [4]: 91.2%
viability, T/C [5]: 4.89%
viability, T/C [6]: 0.44%
viability, T/C [7]: 96%
viability, T/C [8]: 86.7%
viability, T/C [9]: 98%
viability, T/C [10]: 101%
viability, T/C [11]: 4.58%
viability, T/C [12]: 0.37%
viability, T/C [13]: 99.4%
viability, T/C [14]: 87.2%
viability, T/C [15]: 91.9%
viability, T/C [16]: 103%
viability, T/C [17]: 12.8%
viability, T/C [18]: 0.38%
viability, T/C [19]: 107%
viability, T/C [20]: 107%
viability, T/C [21]: 97.7%
viability, T/C [22]: 113%
viability, T/C [23]: 4.88%
viability, T/C [24]: 0.35%
viability, T/C [25]: 111%
viability, T/C [26]: 103%
viability, T/C [27]: 108%
viability, T/C [28]: 77.6%
viability, T/C [29]: 4.31%
viability, T/C [30]: 0.37%
viability, T/C [31]: 102%
viability, T/C [32]: 108%
viability, T/C [33]: 98.2%
viability, T/C [34]: 59.5%
viability, T/C [35]: 3.42%
viability, T/C [36]: 0.42%
